The subject of series [1] is 786-0. Briefly: NCI 60-cell line one-dose antiproliferative screen (SRB). Format: cell-based. The following applies: Homo sapiens, read-out: growth inhibition % (GI%). The gist of the method: (§1)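 Values are GI% from a one-dose NCI DTP screen: compound at 10 µM, 48 h at 37 °C in 5% CO2, cell mass by SRB staining at 515 nm.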
Series [2] has as its system ACHN. The series is described as above. Type of series: cell-based. The following applies: Homo sapiens, read-out: growth inhibition % (GI%). Summed up: as §1
The subject of series [3] is BT-5. The description is as above. Format: cell-based. The following applies: Homo sapiens, read-out: growth inhibition % (GI%). Summed up: as §1
Series [4] deals with HCT-116. Described as above. Format: cell-based. To be noted: Homo sapiens, read-out: growth inhibition % (GI%). The gist of the method:
as §1

Series [5] relates to HOP-92. The series is described as above. Format: cell-based. The following applies: Homo sapiens, read-out: growth inhibition % (GI%). The gist of the method:
as §1

Series [6] has as its system HS 578 T. Described as above. To be noted: Homo sapiens, read-out: growth inhibition % (GI%). Type of series: cell-based. Summed up: as §1
The subject of series [7] is K-562. The description is as above. Type of series: cell-based. The following applies: Homo sapiens, K562, read-out: growth inhibition % (GI%). Summed up: as §1
The subject of series [8] is MALME-3M. The series is described as above. Format: cell-based. The following applies: Homo sapiens, read-out: growth inhibition % (GI%). Summed up: as §1
Series [9] deals with MOLT-4. The description is as above. Type of series: cell-based. The following applies: Homo sapiens, read-out: growth inhibition % (GI%). Summed up: as §1
Series [10] concerns NCI-H23. The description is as above. To be noted: Homo sapiens, read-out: growth inhibition % (GI%). Type of series: cell-based. The gist of the method: as §1
In series [11] the test system is NCI/ADR-RES. The description is as above. The following applies: Homo sapiens, read-out: growth inhibition % (GI%). Format: cell-based. The gist of the method: as §1
For series [12], the system named is OVCAR-3. The description is as above. Type of series: cell-based. The following applies: Homo sapiens, read-out: growth inhibition % (GI%). Summed up:
as §1

For series [13], the system named is SF-268. Described as above. Type of series: cell-based. To be noted: Homo sapiens, read-out: growth inhibition % (GI%). Summed up:
as §1

In series [14] the test system is SF-539. The description is as above. Type of series: cell-based. The following applies: Homo sapiens, read-out: growth inhibition % (GI%). Summed up: as §1
In series [15] the test system is SR. Described as above. The following applies: Homo sapiens, read-out: growth inhibition % (GI%). Format: cell-based. The gist of the method:
as §1

For series [16], the system named is UACC-62. The series is described as above. Format: cell-based. To be noted: Homo sapiens, read-out: growth inhibition % (GI%). The gist of the method: as §1
In series [17] the test system is DU-145. Put plainly: NCI 60-cell line one-dose antiproliferative screen (SRB). Format: cell-based. To be noted: Homo sapiens, read-out: growth inhibition % (GI%). Summed up:
as §1

Series [18] has as its system HCC-2998. Described as above. Format: cell-based. The following applies: Homo sapiens, read-out: growth inhibition % (GI%). The gist of the method:
as §1

In series [19] the test system is KM12. The description is as above. Type of series: cell-based. The following applies: Homo sapiens, read-out: growth inhibition % (GI%). The gist of the method:
as §1

Series [20] concerns SK-MEL-28. The description is as above. Format: cell-based. The following applies: Homo sapiens, read-out: growth inhibition % (GI%). Summed up:
as §1

For series [21], the system named is SK-MEL-2. The series is described as above. Format: cell-based. To be noted: Homo sapiens, read-out: growth inhibition % (GI%). Summed up:
as §1

The subject of series [22] is SK-OV-3. The description is as above. Format: cell-based. The following applies: Homo sapiens, read-out: growth inhibition % (GI%). The gist of the method: as §1
Series [23] concerns TK-10. The description is as above. To be noted: Homo sapiens, read-out: growth inhibition % (GI%). Format: cell-based. Summed up:
as §1

For series [24], the system named is UACC-257. The description is as above. Type of series: cell-based. To be noted: Homo sapiens, read-out: growth inhibition % (GI%). Summed up:
as §1

Series [25] relates to HT29. The description is as above. Format: cell-based. To be noted: Homo sapiens, HT-29, read-out: growth inhibition % (GI%). The gist of the method: as §1
Series [26] relates to Colo 205. The description is as above. Format: cell-based. To be noted: Homo sapiens, read-out: growth inhibition % (GI%). Summed up: as §1

As a reminder, the inhibition is the drop in the measured response relative to a control, in per cent. One may read the melting point as the temperature, or range, at which the solid turns liquid.

With `Cc1ccc(C(=O)c2ccc(CC(=O)NN=Cc3c[nH]c4ccccc34)n2C)cc1` [Compound 5f, N′-((1H-Indol-3-yl)methylene)-2–(1-methyl-5–(4-methylbenzoyl)-1H-pyrrol-2-yl) acetohydrazide], the melting point fell in the range of 168 to 170 °C. Also, in [1], the inhibition at 10 µM was less than 10%. The inhibition at 10 µM in series [2] came to 34.2%. Also, the inhibition at 10 µM in [3] was less than 10%. For the same molecule, the inhibition at 10 µM in series [4] was less than 10%. Also, the inhibition at 10 µM in series [5] was less than 10%. For the same molecule, the inhibition at 10 µM in series [6] was less than 10%. The inhibition at 10 µM in series [7] is less than 10%. The inhibition at 10 µM in series [8] came out at 19.3%. Also, the inhibition at 10 µM in [9] was 16.5%. Moreover, the inhibition at 10 µM in series [10] was less than 10%. Further, the inhibition at 10 µM in [11] was less than 10%. Also, in series [12], the inhibition at 10 µM was less than 10%. The inhibition at 10 µM in series [13] was found to be 10.5%. Further, the inhibition at 10 µM in series [14] was less than 10%. Moreover, in series [15], the inhibition at 10 µM stood at 11.2%. Besides, the inhibition at 10 µM in [16] is 12.2%.

`Cc1ccc(C(=O)c2ccc(CC(=O)NN=Cc3ccccc3O)n2C)cc1` [Compound 5a, N′-(2-Hydroxybenzylidene)-2–(1-methyl-5–(4-methylbenzoyl)-1H-pyrrol-2-yl)aceto hydrazide] showed a melting point of 222 to 224 °C. Further, in [1], the inhibition at 10 µM is less than 10%. Besides, in series [2], the inhibition at 10 µM came out at 46.8%. In addition, the inhibition at 10 µM in series [3] stood at 14.9%. Besides, the inhibition at 10 µM in series [17] was 10.4%. Besides, the inhibition at 10 µM in series [18] was less than 10%. In addition, the inhibition at 10 µM in [4] was less than 10%. For the same molecule, the inhibition at 10 µM in [5] was less than 10%. Also, in series [7], the inhibition at 10 µM was 15.8%. Also, in [19], the inhibition at 10 µM came out at 19.6%. Moreover, in series [8], the inhibition at 10 µM is less than 10%. Further, the inhibition at 10 µM in series [9] turned out to be 26%. For the same molecule, in series [10], the inhibition at 10 µM was determined as 17.1%. Further, the inhibition at 10 µM in [11] came out at 30.6%. For the same molecule, the inhibition at 10 µM in [12] turned out to be 19.7%. In addition, in series [13], the inhibition at 10 µM was determined as 29.1%. Further, the inhibition at 10 µM in series [14] was determined as 10.9%. For the same molecule, the inhibition at 10 µM in series [20] was 15.7%. In addition, the inhibition at 10 µM in [21] amounted to 10.4%. Further, in series [22], the inhibition at 10 µM was less than 10%. Further, the inhibition at 10 µM in series [15] was determined as 43.8%. Besides, the inhibition at 10 µM in series [23] came to 14.9%. Besides, the inhibition at 10 µM in series [24] was less than 10%. Besides, in series [16], the inhibition at 10 µM was determined as 12.8%.

Molecule `Cc1ccc(C(=O)c2ccc(CC(=O)NN3C(=O)C=CC3=O)n2C)cc1` [Compound 7b, N-(2,5-Dioxo-2,5-dihydro-1H-pyrrol-1-yl)-2–(1-methyl-5–(4-methylbenzoyl)-1H-pyrrol-2-yl)acetamide] returned a melting point of 193 to 195 °C. Also, the inhibition at 10 µM in [1] is less than 10%. In addition, in series [2], the inhibition at 10 µM stood at 11.1%. Further, the inhibition at 10 µM in series [3] was less than 10%. Moreover, in series [17], the inhibition at 10 µM was less than 10%. In addition, the inhibition at 10 µM in series [4] came to 14%. Also, the inhibition at 10 µM in [6] was less than 10%. Besides, in series [7], the inhibition at 10 µM was determined as 16.5%. In series [19], the inhibition at 10 µM was less than 10%. For the same molecule, the inhibition at 10 µM in series [9] is 14%. For the same molecule, the inhibition at 10 µM in [10] was found to be 23.9%. The inhibition at 10 µM in series [11] turned out to be 12.3%. Moreover, the inhibition at 10 µM in series [13] was 12.3%. Also, the inhibition at 10 µM in series [14] is less than 10%. In addition, the inhibition at 10 µM in series [21] was less than 10%. The inhibition at 10 µM in [22] is less than 10%. The inhibition at 10 µM in series [16] was less than 10%.

`Cc1ccc(C(=O)c2ccc(CC(=O)NN3C(=O)CCC3=O)n2C)cc1` [Compound 7a, N-(2,5-Dioxopyrrolidin-1-yl)-2–(1-methyl-5–(4-methylbenzoyl)-1H-pyrrol-2-yl) acetamide]: the melting point is more than 300 °C. Besides, the inhibition at 10 µM in [1] is less than 10%. Also, the inhibition at 10 µM in [2] is 11.2%. The inhibition at 10 µM in [3] is less than 10%. Also, the inhibition at 10 µM in series [4] was 11.3%. Moreover, the inhibition at 10 µM in series [5] is 19.2%. Besides, the inhibition at 10 µM in series [25] is less than 10%. Further, in series [7], the inhibition at 10 µM was 11.2%. For the same molecule, the inhibition at 10 µM in series [9] is less than 10%. In addition, the inhibition at 10 µM in series [10] came to 24.8%. The inhibition at 10 µM in series [11] amounted to 12.8%. In series [13], the inhibition at 10 µM was found to be 11.9%. The inhibition at 10 µM in [14] was less than 10%. Also, in [21], the inhibition at 10 µM was less than 10%. In addition, in [22], the inhibition at 10 µM came out at 14%. Besides, the inhibition at 10 µM in series [16] came to 12.4%.

In turn, `Cc1ccc(C(=O)c2ccc(CC(=O)NNC(=O)Nc3ccc(Cl)c(C(F)(F)F)c3)n2C)cc1` [Compound 8c, N-(4-Chloro-3-(trifluoromethyl)phenyl)-2–(2-(1-methyl-5–(4-methylbenzoyl)-1H-pyrrol-2-yl)acetyl)hydrazinecarboxamide] returned a melting point of 171 to 173 °C. In addition, the inhibition at 10 µM in series [2] was less than 10%. The inhibition at 10 µM in [3] was determined as 11.4%. In addition, the inhibition at 10 µM in series [26] is less than 10%. Further, in series [17], the inhibition at 10 µM is less than 10%. The inhibition at 10 µM in series [4] is less than 10%. Further, in series [5], the inhibition at 10 µM came to 13.5%. In addition, in series [6], the inhibition at 10 µM is 11.9%. Also, the inhibition at 10 µM in series [25] was less than 10%. Also, the inhibition at 10 µM in [7] is less than 10%. Also, the inhibition at 10 µM in series [19] was less than 10%. Moreover, in [8], the inhibition at 10 µM is less than 10%. Besides, the inhibition at 10 µM in series [9] amounted to 19.2%. Besides, the inhibition at 10 µM in series [10] was less than 10%. The inhibition at 10 µM in [11] was less than 10%. In addition, the inhibition at 10 µM in [13] is 26.3%. The inhibition at 10 µM in series [14] is less than 10%. Also, the inhibition at 10 µM in series [15] is less than 10%. The inhibition at 10 µM in series [24] was 22.9%. Further, the inhibition at 10 µM in [16] was found to be 19.7%.

Source of the values: article PMC8079033, “Design, synthesis, anticancer evaluation, and molecular modelling studies of novel tolmetin derivatives as potential VEGFR-2 inhibitors and apoptosis inducers” (Journal of Enzyme Inhibition and Medicinal Chemistry, 2021).
